# Test results published in ChEMBL document CHEMBL2218064, “Structure-activity relationship data for chemical series of antagonists of the P2X7 receptor (Supplementary Bioactivity Data for publication CHEMBL1157114)”.
# Biological target: T1, P2X purinoceptor 7 (Homo sapiens, UniProt Q99572)
# T1 sequence (Q99572 whole entry): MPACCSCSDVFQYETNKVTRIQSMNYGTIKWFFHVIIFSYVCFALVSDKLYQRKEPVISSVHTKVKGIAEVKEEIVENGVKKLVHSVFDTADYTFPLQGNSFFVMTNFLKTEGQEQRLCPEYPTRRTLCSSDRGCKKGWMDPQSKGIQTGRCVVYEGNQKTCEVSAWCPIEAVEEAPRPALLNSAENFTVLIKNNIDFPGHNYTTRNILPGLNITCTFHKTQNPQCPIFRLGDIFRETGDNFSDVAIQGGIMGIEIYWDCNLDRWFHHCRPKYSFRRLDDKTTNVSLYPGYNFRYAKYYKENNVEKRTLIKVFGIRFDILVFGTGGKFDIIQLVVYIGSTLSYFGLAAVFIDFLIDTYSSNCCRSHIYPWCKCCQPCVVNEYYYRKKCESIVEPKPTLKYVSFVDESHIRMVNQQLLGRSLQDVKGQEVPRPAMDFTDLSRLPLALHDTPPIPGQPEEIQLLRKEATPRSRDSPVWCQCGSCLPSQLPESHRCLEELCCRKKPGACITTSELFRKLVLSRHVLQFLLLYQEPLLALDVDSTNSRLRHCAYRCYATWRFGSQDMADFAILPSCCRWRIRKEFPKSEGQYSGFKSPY
# Assay: SUPPLEMENTARY: Inhibition of human P2X7 receptor assessed as inhibition of ethidium bromide accumulation. Same assay as CHEMBL1103860
row,IC50 [nM],Compound
1,15.8,Cc1c(Cl)cccc1CNC(=O)[C@@H]1CCC(=O)N1C
2,25.1,CN1C(=O)CC[C@H]1C(=O)NCc1cccc(C(F)(F)F)c1F
3,126,CN1C(=O)CC[C@H]1C(=O)NCc1cccc(Cl)c1F
4,398,CCN1C(=O)c2ccccc2C1C(=O)NCc1ccc(Cl)cc1Cl (stereo not given)
5,126,CN1C(=O)c2ccccc2C1C(=O)NCc1ccc(Cl)cc1Cl (stereo not given)
6,316,CN1C(=O)c2ccccc2C1C(=O)NCc1ccc(F)cc1Cl (stereo not given)
7,15.8,CN1C(=O)c2ccccc2C1C(=O)NCc1cccc(C(F)(F)F)c1Cl (stereo not given)
8,100,CCN1C(=O)CCC1(C)C(=O)NCc1ccc(Cl)cc1Cl (stereo not given)
9,10,CC1(C(=O)NCc2ccc(Cl)cc2Cl)CCC(=O)N1C1CC1 (stereo not given)
10,200,CC(C)N1C(=O)CCC1(C)C(=O)NCc1ccc(Cl)cc1Cl (stereo not given)
11,158,CCN1C(=O)CC[C@@H]1C(=O)NCc1cccc(C(F)(F)F)c1F
12,200,CCN1C(=O)CC[C@@H]1C(=O)NCc1ccc(F)cc1C(F)(F)F
13,251,CN1C(=O)CC[C@@H]1C(=O)NCc1ccc(F)cc1C(F)(F)F
14,20,O=C(NCc1ccc(F)cc1Cl)C1CCC(=O)N1C1CC1 (stereo not given)
15,501,O=C(NCc1ccc(F)cc1Cl)C1CC(=O)N(C2CC2)C1 (stereo not given)
16,631,CC1=CC(=O)N(C2CC2)C1C(=O)NCc1ccc(Cl)cc1Cl (stereo not given)
17,3.16,Cc1c(CNC(=O)[C@@H]2CCC(=O)N2C)cccc1C(F)(F)F
18,39.8,CN1C(=O)CC[C@H]1C(=O)NCc1ccc(F)cc1Br
19,3.16,CCN1C(=O)CC[C@H]1C(=O)NCc1ccc(F)c(Cl)c1Cl
20,1.26,O=C(NCc1cccc(C(F)(F)F)c1Cl)C1CCC(=O)N1C1CC1 (stereo not given)
21,1.26,Cc1cc(Cl)cc(Cl)c1CNC(=O)[C@@H]1CCC(=O)N1C
22,1.58,CN1C(=O)CC[C@H]1C(=O)NCc1cccc2ccccc12
23,25.1,CCN1C(=O)C(C)(C)CC1C(=O)NCc1ccc(Cl)cc1Cl (stereo not given)
24,31.6,O=C(NCc1cccc(C(F)(F)F)c1Cl)[C@H]1CCC(=O)N1Cc1ccccc1
25,100,CN1C(=O)CC(C)(C)C1C(=O)NCc1cccc(C(F)(F)F)c1Cl (stereo not given)
26,63.1,CN1CC(C(=O)NCc2cccc(C(F)(F)F)c2Cl)CC1=O (stereo not given)
27,5.01,CC(C)N1C(=O)CC[C@H]1C(=O)NCc1ccc(F)c(Cl)c1Cl

row,IC50 [nM],Compound
1,3.98,Cc1c(CNC(=O)[C@@H]2CCC(=O)N2C(C)C)cccc1C(F)(F)F
2,20,CC(C)N1C(=O)CC[C@H]1C(=O)NCc1cccc(Cl)c1Cl
3,158,CN1CC(C(=O)NCc2ccc(Cl)cc2Cl)CC1=O (stereo not given)
4,50.1,CCN1CC(C(=O)NCc2cccc(C(F)(F)F)c2Cl)CC1=O (stereo not given)
5,63.1,CC(C)CN1CC(C(=O)NCc2cccc(C(F)(F)F)c2Cl)CC1=O (stereo not given)
6,126,O=C(NCc1ccc(Cl)cc1Cl)C1CC(=O)N(C2CC2)C1 (stereo not given)
7,31.6,O=C(NCc1cccc(C(F)(F)F)c1Cl)C1CC(=O)N(C2CC2)C1 (stereo not given)
8,5.01,O=C(NCc1ccc(Cl)cc1Cl)[C@@H]1CCC(=O)N1C1CCC1
9,10,O=C(NCc1ccc(F)c(F)c1Cl)[C@@H]1CCC(=O)N1C1CCC1
10,631,CCN1[C@H](C(=O)NCc2ccc(F)c(F)c2F)CCCS1(=O)=O
11,3.16,CN1C[C@@H](C(=O)NCc2ccc(F)c(F)c2Cl)N(C)C1=O
12,63.1,O=C(NCc1ccc(Cl)cc1Cl)[C@H]1CCC(=O)N1Cc1cccnc1
13,50.1,O=C(NCc1cccc(C(F)(F)F)c1Cl)[C@H]1CCC(=O)N1Cc1cccnc1
14,31.6,Cc1cnn(C)c1CC(=O)NCc1ccc(F)c(F)c1Cl
15,631,CCN1C(=O)CC[C@H]1C(=O)NCc1ccccc1C#N
16,15.8,C[C@@H]1CC(=O)N(C)[C@@H]1C(=O)NCc1cccc(C(F)(F)F)c1Cl
17,158,CC(C)(C)CN1C(=O)CC[C@@H]1C(=O)NCc1cccc(C(F)(F)F)c1Cl
18,631,Cc1c(Cl)cccc1CNC(=O)[C@@H]1CCCS(=O)(=O)N1C(C)C
19,126,CN1[C@H](C(=O)NCc2ccc(F)cc2Cl)CCS1(=O)=O
20,63.1,O=C(NCc1cccc(C(F)(F)F)c1Cl)[C@H]1CCC(=O)N1Cc1ccccn1
21,398,Cc1cccc(Cl)c1CNC(=O)[C@@H]1CCS(=O)(=O)N1C
22,31.6,CN1[C@H](C(=O)NCc2ccc(Cl)cc2Cl)CCS1(=O)=O
23,501,CCN1[C@H](C(=O)NCc2ccccc2Cl)CCS1(=O)=O
24,50.1,Cc1cnn(CC(F)(F)F)c1CC(=O)NCc1ccc(F)c(F)c1Cl
25,251,CCN1[C@H](C(=O)NCc2ccc(F)c(F)c2F)CCS1(=O)=O
26,100,Cc1c(Cl)cccc1CNC(=O)[C@@H]1CCS(=O)(=O)N1C

# Further lines, the compound ahead of its results:
row,Compound,IC50 [nM]
1,O=C(NCc1ccc(Cl)cc1Cl)C1CC(=O)N(Cc2ccccc2)C1 (stereo not given),158
2,CCN1C(=O)CC[C@@H]1C(=O)NCc1c(Cl)cccc1Cl,631
3,CC(C)CN1CC(C(=O)NCc2ccc(Cl)cc2Cl)CC1=O (stereo not given),79.4
4,CN1[C@H](C(=O)NCc2ccccc2Cl)CCS1(=O)=O,794
5,CCN1C(=O)c2ccccc2C1C(=O)NCc1cccc(C(F)(F)F)c1Cl (stereo not given),79.4
6,O=C(NCc1ccc(Cl)cc1Cl)C1CCC(=O)N1C1CC1 (stereo not given),3.16
7,CCN1C(=O)CC[C@@H]1C(=O)NCc1cccc(Cl)c1F,794
8,CCN1C(=O)CC[C@@H]1C(=O)NCc1ccc(F)c(F)c1Cl,200
9,CCN1C(=O)CC[C@@H]1C(=O)NCc1ccc(Cl)cc1C,126
10,CN1C(=O)CC[C@@H]1C(=O)NCc1cccc(Cl)c1Cl,63.1
11,CN1C(=O)CC[C@@H]1C(=O)NCc1cccc(C(F)(F)F)c1Cl,15.8
12,Cc1c(Cl)cccc1CNC(=O)[C@H]1CCC(=O)N1C,100
13,CN1C(=O)CC[C@H]1C(=O)NCc1cccc(F)c1C(F)(F)F,200
14,CN1C(=O)CC[C@@H]1C(=O)NCc1cccc(C(F)(F)F)c1F,200
15,CN1C(=O)CC[C@H]1C(=O)NCc1ccc(F)c(F)c1Cl,39.8
16,CC(C)(C)CN1C(=O)CC[C@H]1C(=O)NCc1cccc(C(F)(F)F)c1Cl,25.1
17,O=C(NCc1cccc(C(F)(F)F)c1Cl)[C@H]1CCC(=O)N1C1CCCC1,100
18,CCC(C)N1C(=O)CC[C@@H]1C(=O)NCc1cccc(C(F)(F)F)c1Cl (stereo not given in full),63.1
19,O=C(NCc1cccc(C(F)(F)F)c1Cl)C1COCC(=O)N1Cc1ccccc1 (stereo not given),251
20,O=C(NCc1ccc(Cl)cc1Cl)C1COCC(=O)N1Cc1ccccc1 (stereo not given),501
21,O=C(NCc1ccc(F)cc1Cl)C1COCC(=O)N1Cc1ccccc1 (stereo not given),501
22,CCN1C(=O)CC[C@H]1C(=O)NCc1cccc(C)c1C,100
23,CN1C(=O)CC[C@H]1C(=O)NCc1ccc(F)c(Cl)c1Cl,12.6
24,Cc1c(Cl)cccc1CNC(=O)[C@@H]1CCC(=O)N1C(C)C,15.8
25,CC(C)N1C(=O)CC[C@H]1C(=O)NCc1cccc(C(F)(F)F)c1Cl,2
26,CC(C)N1C(=O)CC[C@H]1C(=O)NCc1ccc(F)c(F)c1Cl,20

row,Compound,IC50 [nM]
1,CC(C)N1C(=O)CC[C@H]1C(=O)NCc1ccc(Cl)cc1Cl,7.94
2,CCN1CC(C(=O)NCc2ccc(Cl)cc2Cl)CC1=O (stereo not given),126
3,CN1C(=O)OC[C@@H]1C(=O)NCc1cccc(C(F)(F)F)c1Cl,50.1
4,CCN1[C@H](C(=O)NCc2ccc(Cl)cc2Cl)CCCS1(=O)=O,200
5,CCN1[C@H](C(=O)NCc2ccc(F)cc2Cl)CCCS1(=O)=O,631
6,CN1[C@H](C(=O)NCc2ccc(Cl)cc2Cl)CCCS1(=O)=O,251
7,O=C(NCc1cccc(C(F)(F)F)c1Cl)C1CC(=O)N(Cc2ccccc2)C1 (stereo not given),316
8,Cc1c(Cl)cccc1CNC(=O)[C@@H]1CCC(=O)N1C1CCC1,15.8
9,O=C1C(=O)N(c2cccc3ccccc23)CCN1Cc1c(F)cccc1Cl,631
10,O=C1C(=O)N(c2cccc3ccccc23)CCN1Cc1ccc(F)cc1Cl,63.1
11,O=C(NCc1cccc(C(F)(F)F)c1Cl)[C@@H]1CCC(=O)N1C1CCC1,2
12,O=C(NCc1cccc(Cl)c1Cl)[C@@H]1CCC(=O)N1C1CCC1,12.6
13,Cc1c(CNC(=O)[C@@H]2CCC(=O)N2C2CCC2)cccc1C(F)(F)F,3.16
14,CC(C)CN1[C@H](C(=O)NCc2ccc(Cl)cc2Cl)CCS1(=O)=O,158
15,CC(C)CN1[C@H](C(=O)NCc2ccc(F)cc2Cl)CCS1(=O)=O,501
16,CCN1C(=O)CC[C@H]1C(=O)NCc1cccc(C(F)(F)F)c1C#N,3.16
17,C[C@H]1CC(=O)N(C)[C@@H]1C(=O)NCc1cccc(C(F)(F)F)c1Cl,100
18,CN1C(=O)CC[C@@H]1C(=O)NCc1ccc(Cl)cc1Cl,50.1
19,CC(C)N1[C@H](C(=O)NCc2ccc(Cl)cc2Cl)CCCS1(=O)=O,501
20,CN1C[C@@H](C(=O)NCc2cccc(C(F)(F)F)c2F)N(C)C1=O,7.94
21,CN1C[C@@H](C(=O)NCc2ccc(F)c(F)c2F)N(C)C1=O,31.6
22,CN1C[C@@H](C(=O)NCc2ccc(F)cc2C(F)(F)F)N(C)C1=O,50.1
23,CN1C[C@@H](C(=O)NCc2ccc(F)cc2Cl)N(C)C1=O,10
24,CC(C)N1[C@H](C(=O)NCc2ccc(F)cc2C(F)(F)F)CCS1(=O)=O,631
25,CN1[C@H](C(=O)NCc2ccc(F)cc2C(F)(F)F)CCS1(=O)=O,398
26,CN1C(=O)CC[C@H]1C(=O)NCc1ccc(F)c(C(F)(F)F)c1Cl,3.16
